Test results reported in publication PMC7413254 (Nature Communications, 2020).
Positions count from the first letter of the chain named.

Experiments:
[1] = biological target: T1, PfCRT^Dd2 in C4^Dd2 parasites (Plasmodium falciparum, UniProt Q8IBZ9, A220S/I356T/K76T/M74I/N326S/N75E/Q271E/R371I); assay: P. falciparum H+-efflux assay (rate of DV alkalinisation after concanamycin A); type: cell-based; conditions: C4Dd2; for Effect on rate of DV alkalinisation / H+ leak (in words): test solute 10 μM
T1 construct: PfCRT also functions as a peptide transporter within its native environment of the DV membrane; expressed in transfected cells; host or cells: P. falciparum pfcrt transfectant line C4^Dd2 (saponin-isolated trophozoites)
T1 sequence (Q8IBZ9 1-424 M74I/N75E/K76T/A220S/Q271E/N326S/I356T/R371I): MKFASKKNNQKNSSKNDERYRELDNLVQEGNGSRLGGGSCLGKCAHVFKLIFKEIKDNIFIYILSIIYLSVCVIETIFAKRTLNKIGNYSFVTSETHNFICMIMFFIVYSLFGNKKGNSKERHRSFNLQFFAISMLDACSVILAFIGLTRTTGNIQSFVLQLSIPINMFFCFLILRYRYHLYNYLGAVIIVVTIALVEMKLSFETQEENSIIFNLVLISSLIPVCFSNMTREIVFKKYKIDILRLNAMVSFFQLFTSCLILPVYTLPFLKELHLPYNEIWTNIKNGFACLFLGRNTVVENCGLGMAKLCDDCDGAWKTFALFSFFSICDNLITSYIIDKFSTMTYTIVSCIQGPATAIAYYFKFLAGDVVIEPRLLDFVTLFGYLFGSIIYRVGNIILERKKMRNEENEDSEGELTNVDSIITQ

[2] = biological target: T2, PfCRT^7G8 in C6^7G8 parasites (Plasmodium falciparum, UniProt Q8IBZ9, A220S/C72S/I351M/I356L/K76T/N326D); assay: as above; type: cell-based; conditions: C67G8; for Effect on rate of DV alkalinisation / H+ leak (in words): test solute 10 μM
T2 construct: PfCRT also functions as a peptide transporter within its native environment of the DV membrane; expressed in transfected cells; host or cells: P. falciparum pfcrt transfectant line C6^7G8 (saponin-isolated trophozoites)
T2 sequence (Q8IBZ9 1-424 C72S/K76T/A220S/N326D/I351M/I356L): T1 sequence (Q8IBZ9 1-424 M74I/N75E/K76T/A220S/Q271E/N326S/I356T/R371I) with C72S, I74M, E75N, E271Q, S326D, I351M, T356L, I371R

[3] = system: non-expressing oocytes; assay: [3H]VF-6 transport (efflux) from injected Xenopus oocytes; type: cell-based, Xenopus laevis; conditions: trans-inhibition, treatment 45 mM
Protocol: The characterisation of [^3H]VF-6 transport via 23 different field and laboratory-derived isoforms of PfCRT was undertaken with oocytes two days post-cRNA-injection (Figs. 3a–j, 4; Supplementary Fig. 2). The oocytes were injected with 25 nL of ND96 buffer (pH 5.5) supplemented with [^3H]VF-6 and unlabelled VF-6 to achieve estimated intracellular concentrations of 1.4 and 200 μM, respectively. Ten oocytes that had resealed at the injection site were transferred to a 5 mL polystyrene round bottom tube (In Vitro Technologies) and washed with 3.5 mL of ND96 buffer before being transferred to separate wells of a white 96-well plate (PerkinElmer). This treatment served to establish the amount of radioactivity within the oocytes immediately prior to the commencement of the transport assay. Another 10 resealed oocytes were transferred to a 5 mL tube and washed with 3.5 mL of ND96 buffer. The assay commenced with the addition of 100 μL of ND96 buffer and the oocytes were incubated at 27.5 °C for 1.5 h (unless specified otherwise; Fig. 3b). The assay was terminated by removing the reaction buffer with a pipette and washing the oocytes twice with 3.5 mL of ice-cold ND96 buffer. Each oocyte was transferred to a separate well of a white 96-well plate. The oocytes were lysed by the addition of 20 μL of 10% (w/v) SDS and overnight incubation at room temperature. The lysed oocyte was then combined with 150 μL of MicroScint-40 microscintillant (PerkinElmer), the plate covered with a TopSeal-A (PerkinElmer), and the radioactivity measured with a MicroBeta^2 microplate liquid scintillation analyser (PerkinElmer). VF-6 transport was calculated by subtracting the amount of radioactivity (measured in counts per minute) present within the oocytes at the end of the incubation from that measured in the oocytes sampled immediately before the commencement of the assay. The pH-dependence of transport (Fig. 3c) was determined by injecting the oocytes with [^3H]VF-6 suspended in 25 nL ND96 buffer adjusted to pH 5.0, 5.5, 6.0 or 7.0, which corresponded to the injection of 2.5–250 fmol of H^+. The dependence of [^3H]VF-6 transport on Na^+ or Cl^− was examined by injecting the oocytes with [^3H]VF-6 suspended in the control ND96 buffer (pH 5.5) or a version of this buffer that lacked either Na^+ or Cl^− (Supplementary Fig. 2). Na^+ was replaced with 96 mM of KCl and Cl^− was replaced with gluconate salts of Na^+ (NaC6H11O7; 96 mM), K^+ (KC6H11O7; 2 mM), Mg^2+ (MgC12H22O14; 1 mM) and Ca^2+ (CaC12H22O14; 1.8 mM). The dependence of peptide transport on Ca^2+ was determined by injecting the oocytes with [^3H]VF-6 suspended in ND96 buffers that contained different concentrations of Ca^2+ (0–5 mM; Supplementary Fig. 2). […] The dependence of PfCRT-mediated transport on the membrane potential was examined by using (1) Na^+ ionophore III in conjunction with the Na^+ gradients listed in Supplementary Data 7 and (2) Cl^− ionophore III in conjunction with the Cl^− gradients listed in Supplementary Data 7 to clamp the membrane potential of the oocyte from −80 to +80 mV. […] The kinetic parameters for VF-6 transport via different isoforms of PfCRT (Figs. 3e and 4a) were determined in SigmaPlot Windows Version 11.0 by a least-squares fit of the Michaelis–Menten equation to the data.
A subset of assays measured the ability of solutes known to interact with PfCRT to either cis-inhibit, trans-inhibit or trans-stimulate [^3H]VF-6 transport. These experiments involved adding these solutes to either the cis- or trans-side of the membrane relative to [^3H]VF-6. […] At least five independent experiments were performed (on different days and using oocytes from different frogs), and within each experiment measurements were made from ten oocytes per treatment.

Molecule | Effect on rate of DV alkalinisation / H+ leak (in words) [1] | Effect on rate of DV alkalinisation / H+ leak (in words) [2] | Maximum rate of peptide mimic-induced DV alkalinization ([1]; mean ± SEM, n = 5, SEM) | Maximum rate of peptide mimic-induced DV alkalinization ([2]; mean ± SEM, n = 5, SEM) | [3H]VF-6 transport, non-expressing oocytes (% PfCRT3D7 control) ([3]; Experiment 1) | [3H]VF-6 transport, non-expressing oocytes (% PfCRT3D7 control) ([3]; Experiment 2) | [3H]VF-6 transport, non-expressing oocytes (% PfCRT3D7 control) ([3]; Experiment 3) | [3H]VF-6 transport, non-expressing oocytes (% PfCRT3D7 control) ([3]; Experiment 4) | [3H]VF-6 transport, non-expressing oocytes (% PfCRT3D7 control) ([3]; Experiment 5)
CCN(CC)CCCC(C)Nc1ccnc2cc(Cl)ccc12 (stereo not shown) [CQ, chloroquine, reference compound] | increase | increase |  |  |  |  |  |  | 
N[C@@H](Cc1c[nH]cn1)C(=O)O [L-histidine] | without effect | without effect |  |  |  |  |  |  | 
CC(C)(C)NC(=O)[C@@H]1C[C@@H]2CCCC[C@@H]2CN1C[C@@H](O)[C@H](Cc1ccccc1)NC(=O)[C@H](CC(N)=O)NC(=O)c1ccc2ccccc2n1 [Saquinavir, saquinavir, reference compound] | increased the rate of DV alkalinisation | increased the rate of DV alkalinisation | 0.011 ±0.003 fluorescence ratio/s | 0.022 ±0.004 fluorescence ratio/s |  |  |  |  | 
DPVN [VF-6-derived peptide] |  |  |  |  | 3.68 % PfCRT3D7 control | 3.18 % PfCRT3D7 control | 3.95 % PfCRT3D7 control | 3.69 % PfCRT3D7 control | 3.36 % PfCRT3D7 control
DPVNF [VF-6-derived peptide] |  |  |  |  | 3.25 % PfCRT3D7 control | 3.26 % PfCRT3D7 control | 3.78 % PfCRT3D7 control | 3.25 % PfCRT3D7 control | 3.35 % PfCRT3D7 control
PVNF [VF-6-derived peptide] |  |  |  |  | 4.26 % PfCRT3D7 control | 4.58 % PfCRT3D7 control | 4.28 % PfCRT3D7 control | 4.2 % PfCRT3D7 control | 3.58 % PfCRT3D7 control
VDPVN [VF-6-derived peptide] |  |  |  |  | 3.62 % PfCRT3D7 control | 3.95 % PfCRT3D7 control | 3.26 % PfCRT3D7 control | 3.58 % PfCRT3D7 control | 3.77 % PfCRT3D7 control
